pIC50: −log10 of the molar value. Like-named read-outs stand apart in the source and are kept apart here.
Target: T1, KSP motor domain (Homo sapiens, UniProt P52732)
T1 sequence (P52732 18-359 limits assumed): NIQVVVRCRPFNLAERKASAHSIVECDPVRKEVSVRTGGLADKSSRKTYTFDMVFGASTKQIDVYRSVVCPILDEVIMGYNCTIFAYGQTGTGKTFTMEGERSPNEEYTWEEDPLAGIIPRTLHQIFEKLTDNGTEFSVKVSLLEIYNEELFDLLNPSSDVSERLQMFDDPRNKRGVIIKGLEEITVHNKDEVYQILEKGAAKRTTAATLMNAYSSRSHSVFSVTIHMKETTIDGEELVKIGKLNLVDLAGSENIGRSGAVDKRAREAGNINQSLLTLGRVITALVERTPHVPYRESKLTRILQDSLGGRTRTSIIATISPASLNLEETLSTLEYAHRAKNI
Experiment: biochemical
Conditions: for pIC50: read-out: IC50

[1] = KSP inhibitory activity, end-point assay, class symbols (Table 1)
[2] = exact IC50 values, end-point assay (Table 2)

Row | Compound | pIC50 [1] | pIC50 [2] | IC50 (nM) [1]
1 | CC(C)(C)C1CCc2nc3sc(C(=O)N[C@H](CO)c4ccccc4)cc3cc2C1 (stereo partly drawn) [Example 160] | 5.00 to 6.00 |  | 
2 | CC(C)(C)[C@@H]1CCc2nc3sc(C(=O)N[C@H](CN)c4cccc(NC(=O)c5ccon5)c4)cc3cc2C1 [Example 232] | > 7.00 |  | 
3 | COC(=O)C(CO)NC(=O)c1cc2cc3c(nc2s1)CCC(C(C)(C)C)C3 (stereo not drawn) [Example 94] | 6.00 to 7.00 |  | 
4 | N#Cc1sc2nc3c(cc2c1N)CC1(CC3)OCCO1 [Example 44] | < 5.00 |  | 
5 | CC(C)(C)[C@@H]1CCc2nc3sc(C(=O)N[C@H](CN)c4cccc(NC(=O)c5nsnc5N)c4)cc3cc2C1 [Example 255] | > 7.00 |  | 
6 | CCC(C)C1CCc2nc3sc(C#N)c(N)c3cc2C1 (stereo not drawn) [Example 21] | 5.00 to 6.00 |  | 
7 | CC(C)(C)[C@@H]1CCc2nc3sc(C(=O)N[C@H](CN)c4cccc(NC(=O)c5cc[nH]n5)c4)cc3cc2C1 [Example 236] | > 7.00 |  | 
8 | CC(C)(C)C1CCc2nc3sc(C(=O)N[C@H](CN)c4cccc([N+](=O)[O-])c4)cc3cc2C1 (stereo partly drawn) [Example 214] | > 7.00 |  | 
9 | CC(C)(C)C1CCc2nc3sc(C(=O)Nc4cccnc4)cc3cc2C1 (stereo not drawn) [Example 226B] | 6.00 to 7.00 |  | 
10 | CC(C)(C)C1CCc2nc3sc(C(=O)NCC#N)cc3cc2C1 (stereo not drawn) [Example 167, 6-tert-Butyl-5,6,7,8-tetrahydrothieno[2,3-b]quinoline-2-carboxylic acid cyanomethyl-amide] | 6.00 to 7.00 |  | 
11 | CCC(C)(C)C1CCc2nc3sc(C(N)=O)cc3c(O)c2C1 (stereo not drawn) [Example 116] | < 5.00 |  | 
12 | CC(C)(C)C1CCc2nc3sc(NC(N)=O)nc3cc2C1 (stereo not drawn) [Example 132, (7-tert-Butyl-5,6,7,8-tetrahydrothiazolo[5,4-b]quinolin-2-yl)-urea] | 5.00 to 6.00 |  | 
13 | CC1Cc2nc3sc(C#N)c(N)c3cc2C(C)C1 (stereo not drawn) [Example 46] | < 5.00 |  | 
14 | CC(C)(C)[C@@H]1CCc2nc3sc(C(=O)N[C@H](CN)c4cccc(NC(=O)c5ncco5)c4)cc3cc2C1 [Example 263, 6-tert-butyl-5,6,7,8-tetrahydrothieno[2,3-b]quinoline-2-carboxylic acid (2-amino-1-{3-[(oxazole-2-carbonyl)amino]phenyl}ethyl)amide] | > 7.00 |  | 
15 | CC(C)(C)C1CCc2nc3sc(C(=O)NCC(=N)N)cc3cc2C1 (stereo not drawn) [Example 168, 6-tert-Butyl-5,6,7,8-tetrahydrothieno[2,3-b]quinoline-2-carboxylic acid carbamimidoylmethylamide] | > 7.00 | 8.10 | 
16 | CC(C)(C)[C@@H]1CCc2nc3sc(C(=O)N[C@H](CN)c4cccc(NC(=O)c5ccns5)c4)cc3cc2C1 [Example 235] | > 7.00 | 7.64 | 
17 | CC(C)C(C)(C)C1CCc2nc3sc(C#N)c(N)c3cc2C1 (stereo not drawn) [Example 7] | < 5.00 |  | 
18 | CCC(C)(C)C1C=Cc2nc3sc(C(N)=O)cc3cc2C1 (stereo not drawn) [Example 114] | > 7.00 |  | 
19 | Cc1cc(C(=O)Nc2cccc([C@@H](CN)NC(=O)c3cc4cc5c(nc4s3)CC[C@@H](C(C)(C)C)C5)c2)nn1C [Example 244] | > 7.00 |  | 

Row | Compound | pIC50 [1] | pIC50 [2] | IC50 (nM) [1]
20 | CC1(C2CCc3nc4sc(C#N)c(N)c4cc3C2)CC1 (stereo not drawn) [Example 43] | 6.00 to 7.00 |  | 
21 | CC(C)(C)C1CCc2nc3sc(C(=O)N[C@H](CN)Cc4ccc(O)cc4)cc3cc2C1 (stereo partly drawn) [Example 180] | 6.00 to 7.00 |  | 
22 | CC(C)[C@@H](C#N)NC(=O)c1cc2cc3c(nc2s1)CCC(C(C)(C)C)C3 (stereo partly drawn) [Example 162, 6-tert-Butyl-5,6,7,8-tetrahydrothieno[2,3-b]quinoline-2-carboxylic acid [(1S)-1-cyano-2-methylpropyl]amide] | < 5.00 |  | 
23 | Cc1cc(C(=O)Nc2ccc([C@@H](CN)NC(=O)c3cc4cc5c(nc4s3)CC[C@@H](C(C)(C)C)C5)cc2)no1 [Example 274] | > 7.00 |  | 
24 | CC(C)(C)C1CCc2nc3sc(C(=O)N[C@H](C#N)Cc4ccccc4)cc3cc2C1 (stereo partly drawn) [Example 163, 6-tert-Butyl-5,6,7,8-tetrahydrothieno[2,3-b]quinoline-2-carboxylic acid [(1S)-1-cyano-2-phenylethyl)amide] | < 5.00 |  | 
25 | CCC(C)(C)C1CCc2c(cc3cc(C#N)sc3[n+]2[O-])C1 (stereo not drawn) [Example 71] | 5.00 to 6.00 |  | 
26 | CC(C)(C)C1CCc2nc3sc(C(=O)N4CCNCC4)cc3cc2C1 (stereo not drawn) [Example 95] | < 5.00 |  | 
27 | Cn1ccc(C(=O)Nc2cccc([C@@H](CNCCO)NC(=O)c3cc4cc5c(nc4s3)CC[C@@H](C(C)(C)C)C5)c2)n1 [Example 268] | > 7.00 |  | 
28 | CC(C)(C)C1CCc2nc3sc(C(=O)N[C@H](CN)c4cccc(Br)c4)cc3cc2C1 (stereo partly drawn) [Example 210, 6-tert-butyl-5,6,7,8-tetrahydro-thieno[2,3-b]quinoline-2-carboxylic acid [(1S)-2-amino-1-(3-bromo-phenyl)-ethyl]-amide] | 6.00 to 7.00 |  | 
29 | CC(C)(C)C1CCc2nc3sc(C(=O)N[C@@H]4CCC[C@H]4O)cc3cc2C1 (stereo partly drawn) [Example 85] | 5.00 to 6.00 |  | 
30 | CC(C)(C)C1CCc2nc3sc(C(=N)N)cc3cc2C1 (stereo not drawn) [Example 69, 6-tert-butyl-5,6,7,8-tetrahydrothieno[2,3-b]quinoline-2-carboxamidine] |  |  | B/C
31 | CC(C)(C)[C@@H]1CCc2nc3sc(C(=O)N[C@H](CN)c4cccc(NC(=O)c5cnn[nH]5)c4)cc3cc2C1 [Example 253] | 6.00 to 7.00 |  | 
32 | COC(=O)[C@H]1CCCN1C(=O)c1cc2cc3c(nc2s1)CCC(C(C)(C)C)C3 (stereo partly drawn) [Example 89] | < 5.00 |  | 
33 | Cc1oncc1C(=O)Nc1cccc([C@@H](CN)NC(=O)c2cc3cc4c(nc3s2)CC[C@@H](C(C)(C)C)C4)c1 [Example 233] | > 7.00 |  | 
34 | CC(C)(C)C1CCc2nc3sc(C(=O)NC(CO)(CO)CO)cc3cc2C1 (stereo not drawn) [Example 98] | 5.00 to 6.00 |  | 
35 | CC(C)(C)C1CCc2nc3sc(C(N)=O)cc3cc2C1 (single isomer, unassigned; (+)) [Example 68, (+)-6-(1,1-dimethylethyl)-5,6,7,8-tetrahydrothieno[2,3-b]quinoline-2-carboxamide] | > 7.00 | 7.70 | 
36 | CC(C)(C)C1CCc2nc3sccc3cc2C1 (stereo not drawn) [Example 105, 6-tert-Butyl-5,6,7,8-tetrahydrothieno[2,3-b]quinoline] | 5.00 to 6.00 |  | 
37 | Cn1nccc1C(=O)Nc1cccc([C@@H](CN)NC(=O)c2cc3cc4c(nc3s2)CC[C@@H](C(C)(C)C)C4)c1 [Example 238] | > 7.00 |  | 
38 | CC(C)(C)C1CCc2nc3sc(C(=O)Nc4ccc(O)cc4N)cc3cc2C1 (stereo not drawn) [Example 226G] | 6.00 to 7.00 |  | 

Row | Compound | pIC50 [1] | pIC50 [2] | IC50 (nM) [1]
39 | CC(C)(C)C1CCc2nc3sc(S)nc3cc2C1 (stereo not drawn) [Example 128, 7-tert-Butyl-5,6,7,8-tetrahydrothiazolo[5,4-b]quinoline-2-thiol] | 6.00 to 7.00 |  | 
40 | CC(C)(C)C1CCc2nc3sc(C(N)=O)cc3cc2C1 (stereo not drawn) [Example 64, 6-tert-butyl-5,6,7,8-tetrahydrothieno[2,3-b]quinoline-2-carboxylic acid amide] | > 7.00 |  | 
41 | CC(C)CC(C)(C)C1CCc2nc3sc(C#N)c(N)c3cc2C1 (stereo not drawn) [Example 8] | < 5.00 |  | 
42 | CC(C)(C)[C@@H]1CCc2nc3sc(C(=O)N[C@H](CN)c4cccc(NC(=O)c5ccc[nH]5)c4)cc3cc2C1 [Example 252] | > 7.00 |  | 
43 | N#Cc1sc2nc3c(cc2c1N)CC(C(F)(F)F)CC3 (stereo not drawn) [Example 14] | 5.00 to 6.00 |  | 
44 | CC(C)(C)C1CCCc2nc3sc(C(N)=O)cc3cc2C1 (stereo not drawn) [Example 65] | > 7.00 | 7.21 | 
45 | CC(=O)Nc1nc2cc3c(nc2s1)CCC(C(C)(C)C)C3 (stereo not drawn) [Example 135, N-(7-tert-Butyl-5,6,7,8-tetrahydrothiazolo[5,4-b]quinolin-2-yl)acetamide] | 6.00 to 7.00 |  | 
46 | CC(C)(C)C1CCc2nc3sc(C#N)nc3cc2C1 (stereo not drawn) [Example 130, 7-tert-Butyl-5,6,7,8-tetrahydrothiazolo[5,4-b]quinoline-2-carbonitrile] | 5.00 to 6.00 |  | 
47 | CCCC1CCc2nc3sc(C#N)c(N)c3cc2C1 (stereo not drawn) [Example 15] | 5.00 to 6.00 |  | 
48 | CC(C)(C)[C@@H]1CCc2nc3sc(C(=O)N[C@H](CN)c4cccc(NC(=O)c5nsc(Cl)c5Cl)c4)cc3cc2C1 [Example 253A] | 6.00 to 7.00 |  | 
49 | CC1(C)CCc2nc3sc(C#N)c(N)c3cc2C1 [Example 47] | < 5.00 |  | 
50 | CC(C)(C)C1CCc2nc3sc(C#N)cc3cc2C1 (single isomer, unassigned) [Example 63] | > 7.00 | 7.40 | 
51 | CC(C)(C)C1CCc2nc3sc(-c4nnc[nH]4)cc3cc2C1 (stereo not drawn) [Example 182, 6-tert-Butyl-2-(4H-[1,2,4]triazol-3-yl)-5,6,7,8-tetrahydrothieno[2,3-b]quinoline] | 6.00 to 7.00 |  | 
52 | C[C@H]1CN(C(=O)Nc2cccc([C@@H](CN)NC(=O)c3cc4cc5c(nc4s3)CC[C@@H](C(C)(C)C)C5)c2)CCN1 [Example 280] | 6.00 to 7.00 |  | 
53 | CC(C)(C)C1CCc2nc3sc(C(=O)N[C@H](CN)c4ccccc4)nc3cc2C1 (stereo partly drawn) [Example 225, 6-tert-butyl-5,6,7,8-tetrahydro-thiazolo[5,4-b]quinoline-2-carboxylic acid [2(S)-amino-1-phenyl-ethyl]-amide] | > 7.00 |  | 
54 | CC(C)(C)[C@@H]1CCc2nc3sc(C(=O)N[C@H](CN)c4cccc(NC(=O)c5csnn5)c4)cc3cc2C1 [Example 257] | > 7.00 | 7.64 | 
55 | CCCC1CCc2cc3c(N)c(C#N)sc3nc2C1 (stereo not drawn) [Example 49] | < 5.00 |  | 
56 | CC(C)(C)[C@@H]1CCc2nc3sc(C(=O)N[C@H](CN)c4cccc(NC(=O)c5ccno5)c4)cc3cc2C1 [Example 231, 6(R)-tert-butyl-5,6,7,8-tetrahydro-thieno[2,3-b]quinoline-2-carboxylic acid (2-amino-1(S)-{3-[(isoxazole-5-carbonyl)-amino]-phenyl}-ethyl)-amide] | > 7.00 |  | 
57 | CCNC(=O)c1cc2cc3c(nc2s1)CCC(C(C)(C)C)C3 (stereo not drawn) [Example 79] | 5.00 to 6.00 |  | 

From patent US20060247320A1, “Compounds for inhibiting KSP kinesin activity” (priority 2005, published 2006)
